Source: ChEMBL document CHEMBL1201862, “PubChem BioAssay data set” (2004)
The source made the active and inactive calls. Rule as the data show it, for most assays here: actives have a measured IC50 and inactives only a lower limit.

How the values were obtained:
[1] = Luminescence Cell-Based Dose Retest to Confirm Inhibitors of Cancer Stem Cells. [Related pubchem assays (depositor defined):AID2717, AID2721]; format: functional; conditions: Homo sapiens
[2] = Fluorescence-based cell-based high throughput dose response assay for inhibitors of the interaction of nucleotide-binding oligomerization domain containing 2 (NOD2) and the receptor-interacting serine-threonine kinase 2 (RIPK2).; format: functional; conditions: Homo sapiens
[3] = biological target: Neurotensin receptor type 1 (Homo sapiens, UniProt P30989); format: functional;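 also: Image-based confirmatory dose-response assay measuring agonist activity at NTR1; NTR1-expressing U2OS osteosarcoma cells imaged for beta-arrestin GFP spot formation; agonist potency where compounds increase beta-arrestin recruitment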
Chain of Neurotensin receptor type 1 (P30989 whole entry): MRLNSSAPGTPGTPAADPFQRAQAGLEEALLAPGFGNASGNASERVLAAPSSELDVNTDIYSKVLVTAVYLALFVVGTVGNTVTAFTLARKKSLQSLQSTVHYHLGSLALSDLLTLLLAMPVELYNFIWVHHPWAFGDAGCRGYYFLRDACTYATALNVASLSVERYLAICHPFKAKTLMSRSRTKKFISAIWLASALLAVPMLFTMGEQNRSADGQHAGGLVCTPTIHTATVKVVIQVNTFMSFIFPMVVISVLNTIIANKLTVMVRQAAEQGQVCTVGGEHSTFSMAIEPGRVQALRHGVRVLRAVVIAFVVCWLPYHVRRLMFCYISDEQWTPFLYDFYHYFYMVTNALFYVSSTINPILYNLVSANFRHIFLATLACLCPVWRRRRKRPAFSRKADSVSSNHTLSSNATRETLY

[4] = biological target: DNA dC->dU-editing enzyme APOBEC-3G (Homo sapiens, UniProt Q9HC16); assay: Dose Response confirmation of small molecule APOBEC3G DNA Deaminase Inhibitors via a fluorescence-based single-stranded DNA deaminase assay. [Related pubchem assays (depositor defined):AID493012, AID493028]; format: functional
Chain of DNA dC->dU-editing enzyme APOBEC-3G (Q9HC16 whole entry, the tested form may be a part): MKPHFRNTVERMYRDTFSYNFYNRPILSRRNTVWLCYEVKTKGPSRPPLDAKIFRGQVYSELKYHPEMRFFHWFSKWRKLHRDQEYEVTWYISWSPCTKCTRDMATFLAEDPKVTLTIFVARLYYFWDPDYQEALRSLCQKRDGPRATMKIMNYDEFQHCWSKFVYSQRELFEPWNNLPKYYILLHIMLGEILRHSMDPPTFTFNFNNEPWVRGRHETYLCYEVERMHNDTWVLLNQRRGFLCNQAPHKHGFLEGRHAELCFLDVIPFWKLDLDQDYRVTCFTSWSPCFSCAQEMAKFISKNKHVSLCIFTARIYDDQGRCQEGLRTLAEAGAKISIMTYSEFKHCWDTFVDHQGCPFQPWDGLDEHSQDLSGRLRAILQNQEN

[5] = biological target: Nucleotide-binding oligomerization domain-containing protein 1 (Homo sapiens, UniProt Q9Y239); assay: NOD1 signaling inhibitors, SAR follow-up, revised (AID 2333); format: functional
Chain of Nucleotide-binding oligomerization domain-containing protein 1 (Q9Y239 whole entry, the tested form may be a part): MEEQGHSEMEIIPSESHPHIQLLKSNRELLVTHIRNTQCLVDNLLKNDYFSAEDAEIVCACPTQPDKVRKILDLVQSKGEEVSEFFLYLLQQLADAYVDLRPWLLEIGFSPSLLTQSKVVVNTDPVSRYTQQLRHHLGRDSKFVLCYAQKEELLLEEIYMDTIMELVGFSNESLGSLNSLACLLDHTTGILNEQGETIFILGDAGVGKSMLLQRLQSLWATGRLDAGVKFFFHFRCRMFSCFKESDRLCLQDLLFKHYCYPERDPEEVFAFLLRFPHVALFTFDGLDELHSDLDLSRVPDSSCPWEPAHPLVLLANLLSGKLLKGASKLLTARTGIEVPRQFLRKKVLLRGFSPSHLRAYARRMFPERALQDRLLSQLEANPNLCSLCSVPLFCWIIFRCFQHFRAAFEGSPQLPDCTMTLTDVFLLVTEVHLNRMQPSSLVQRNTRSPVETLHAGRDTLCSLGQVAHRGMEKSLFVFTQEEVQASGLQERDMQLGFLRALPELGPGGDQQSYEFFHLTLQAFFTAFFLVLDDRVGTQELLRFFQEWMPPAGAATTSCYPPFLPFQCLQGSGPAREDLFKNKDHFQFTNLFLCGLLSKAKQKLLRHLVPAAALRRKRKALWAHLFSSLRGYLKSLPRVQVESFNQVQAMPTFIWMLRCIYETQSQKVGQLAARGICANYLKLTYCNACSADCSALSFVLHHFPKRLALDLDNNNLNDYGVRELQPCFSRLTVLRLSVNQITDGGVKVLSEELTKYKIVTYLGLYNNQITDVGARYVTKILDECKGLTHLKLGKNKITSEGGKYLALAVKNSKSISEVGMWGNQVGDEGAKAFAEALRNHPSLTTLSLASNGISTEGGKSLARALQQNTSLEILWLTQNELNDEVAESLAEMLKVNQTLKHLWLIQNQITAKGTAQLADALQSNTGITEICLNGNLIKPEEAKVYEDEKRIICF

HEK293 = assay: cells; conditions: Homo sapiens
Tumor necrosis factor = Tumor necrosis factor (Homo sapiens, UniProt P01375); assay: TNFa-triggered NF-kB activation inhibitors, SAR follow-up, cell-based, revised (AID 2337); format: functional
Chain of Tumor necrosis factor (P01375 whole entry): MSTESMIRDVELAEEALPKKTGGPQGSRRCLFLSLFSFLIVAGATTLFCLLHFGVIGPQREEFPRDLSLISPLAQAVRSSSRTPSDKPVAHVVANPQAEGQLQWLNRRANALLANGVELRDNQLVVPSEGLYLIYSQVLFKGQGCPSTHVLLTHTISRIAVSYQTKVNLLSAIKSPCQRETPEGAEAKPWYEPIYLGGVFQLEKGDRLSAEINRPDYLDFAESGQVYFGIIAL

[6] = biological target: Polyadenylate-binding protein 1 (Homo sapiens, UniProt P11940); assay: PABP inhibition in translation initiation, SAR follow-up (AID 435018); format: functional
Chain of Polyadenylate-binding protein 1 (P11940 whole entry): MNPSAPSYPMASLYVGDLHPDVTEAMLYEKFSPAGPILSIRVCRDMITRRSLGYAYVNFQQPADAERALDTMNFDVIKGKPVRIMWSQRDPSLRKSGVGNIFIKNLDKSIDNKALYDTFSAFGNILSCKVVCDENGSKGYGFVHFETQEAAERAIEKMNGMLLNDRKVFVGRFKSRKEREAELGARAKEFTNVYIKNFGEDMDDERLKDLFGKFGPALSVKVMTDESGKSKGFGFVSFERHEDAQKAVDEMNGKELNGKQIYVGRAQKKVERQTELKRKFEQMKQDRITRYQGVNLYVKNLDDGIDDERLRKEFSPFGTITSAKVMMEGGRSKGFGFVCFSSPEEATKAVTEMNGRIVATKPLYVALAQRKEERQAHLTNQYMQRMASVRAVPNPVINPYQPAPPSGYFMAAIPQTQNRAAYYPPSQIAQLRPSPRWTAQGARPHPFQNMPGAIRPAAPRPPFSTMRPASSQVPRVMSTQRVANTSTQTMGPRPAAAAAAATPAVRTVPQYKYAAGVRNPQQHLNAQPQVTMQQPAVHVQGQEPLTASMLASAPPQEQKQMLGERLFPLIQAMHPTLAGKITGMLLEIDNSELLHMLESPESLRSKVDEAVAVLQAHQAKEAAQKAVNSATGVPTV

[7] = biological target: Eukaryotic translation initiation factor 4H (Homo sapiens, UniProt Q15056); assay: eIF4H inhibition in translation initiation, SAR follow-up (AID 435011); format: functional
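For AC50 in this document: cells exposed to compound for roughly 70 hours or longer before luminescence read.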

## COc1ccc(C(=O)/C=C2/C(=O)Nc3ccccc32)c(OC)c1
[1]
  AC50: 5.87 µM (active)
[2]
  IC50: 19.5 µM (inactive)
[3]
  EC50: 24.2 µM (inactive)

## CCNc1nc(NCC)n2c(SCC(=O)Nc3ccc(CC)cc3)nnc2n1
[4]
  IC50: 75.6 µM (active)

## CC(=O)N1c2ccc(S(=O)(=O)N3CCN(c4ccccc4)CC3)cc2CC1C (centres undefined)
[5]
  IC50: 11.1 µM (active)
HEK293
  IC50: > 20 µM (inactive)
Tumor necrosis factor
  IC50: 14.1 µM (active)

## CCOC(=O)Cc1c(Sc2ccccc2)c2ccccc2n1C
[6]
  IC50: > 100 µM (inactive)
[7]
  IC50: > 100 µM (inactive)
